Test results taken from ChEMBL document CHEMBL1124030, “Synthesis and biological activity of the four stereoisomers of 6-[4-[3-[[2-hydroxy-3-[4-[2- (cyclopropylmethoxy)ethyl]phenoxy]propyl]amino]-propionamido] phenyl]-5-methyl-4,5-dihydro-3(2H)-pyridazinone, a combined vasodilator and beta-adrenoceptor antagonist” (1988).

Assays:
Type in all cases: functional
[1] = tested on: Rattus norvegicus; test: Dose required to produce a fall in blood pressure of 40 mmHg in the anesthetized normotensive rat
[2] = tested on: Rattus norvegicus; test: Dose required to produce a 50% increase in blood flow to the autoperfused hindquarters of the anesthetized normotensive rat
[3] = tested on: Felis catus; test: Dose required to induce 50% inhibition of isoprenaline-induced tachycardia in the ganglion blocked anesthetized cat; conditions: read-out: ID50 (the source's name)

Compound	ED40 [1] [µM/kg]	ED50 [2] [µmol/kg]	ED50 [3] [µmol/kg]
C[C@@H]1CC(=O)NN=C1c1ccc(NC(=O)CCNC[C@H](O)COc2ccc(CCOCC3CC3)cc2)cc1	2.4	1	1.7
C[C@@H]1CC(=O)NN=C1c1ccc(NC(=O)CCNC[C@@H](O)COc2ccc(CCOCC3CC3)cc2)cc1	4.9	0.9	20.2
C[C@H]1CC(=O)NN=C1c1ccc(NC(=O)CCNC[C@H](O)COc2ccc(CCOCC3CC3)cc2)cc1	>40	> 40	1.6
C[C@H]1CC(=O)NN=C1c1ccc(NC(=O)CCNC[C@@H](O)COc2ccc(CCOCC3CC3)cc2)cc1	20	> 40	8.6
CC1CC(=O)NN=C1c1ccc(NC(=O)CCNCC(O)COc2ccc(CCOCC3CC3)cc2)cc1 (stereo not given)	2.4	1.6	1.7
